Source: paper PMC4658336, “Identification and activity of inhibitors of the essential nematode-specific metalloprotease DPY-31” (Bioorganic & Medicinal Chemistry Letters, 2015)
Where a SMILES comes first, the peptide text is derived from it.

Legend:
[1] = molecular target: T1, recombinant DPY-31 from T. circumcincta (Teladorsagia circumcincta, UniProt A0A0C5PRQ1); experiment: rDPY-31 absorbance assay (astacin assay, Suc-Ala-Ala-Ala-pNA substrate); format: biochemical; details: T. circumcincta enzyme; species not given; read-out: IC50 rDPY-31 (in vitro absorbance assay)
T1 construct: made in house; host or cells: E. coli (inferred from the codon optimisation and the pET28a(+) vector)
T1 sequence (A0A0C5PRQ1 151-614): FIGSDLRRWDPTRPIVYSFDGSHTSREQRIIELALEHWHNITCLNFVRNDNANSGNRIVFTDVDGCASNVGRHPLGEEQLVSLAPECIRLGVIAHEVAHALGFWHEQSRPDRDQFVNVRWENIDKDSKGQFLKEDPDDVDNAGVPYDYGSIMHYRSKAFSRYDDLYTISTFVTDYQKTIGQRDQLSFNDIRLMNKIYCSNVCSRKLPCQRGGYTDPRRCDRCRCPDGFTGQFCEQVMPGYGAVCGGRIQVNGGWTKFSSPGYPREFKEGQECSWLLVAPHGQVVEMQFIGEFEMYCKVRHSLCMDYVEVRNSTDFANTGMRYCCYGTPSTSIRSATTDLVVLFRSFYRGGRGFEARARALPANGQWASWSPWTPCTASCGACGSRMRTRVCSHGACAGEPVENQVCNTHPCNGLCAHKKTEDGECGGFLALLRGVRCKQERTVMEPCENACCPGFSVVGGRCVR
Excerpt: (§1) In total, 104 compounds were screened against recombinant DPY-31 from both the human parasite B. malayi as well as the sheep GI parasite T. circumcincta using an absorbance assay.[(i)], [10] […] This may be due to the extremely slow binding kinetics of these inhibitors.[17]
(§2) The 684bp and 675bp sequences encoding the astacin domains of T. circumcincta DPY-31, and B. malayi DPY-31, were codon-optimised for E. coli by GeneArt (Life Technologies), and cloned into vector pMA-T. These plasmids were then inserted into the pET28a(+) vector, expression of the encoded proteins was induced and the resulting proteins were purified following the methods described previously. Zinc metalloprotease assays were performed to determine the activity of the recombinant DPY-31 proteins from these nematode species, using the previously described method.^18
(§3) An astacin assay was performed to determine the inhibitory activity of all compounds against recombinant DPY-31 from the two nematode species. Briefly, 150 µg/ml of recombinant enzyme was incubated with 0.1 mM ZnCl2 and various concentrations (5 µM to 400 µM) of compound, and the volume was made up to a total of 100 µl with 50 mM NaPO4, pH 8.0 buffer. […] Absorbance was measured on a plate reader at 405 nm. […]

crayfish astacin = test system: crayfish astacin; parameters: method as in PMID 8756323; details: cited from earlier work
[2] = molecular target: T2, recombinant DPY-31 from B. malayi (Brugia malayi, UniProt A8Q2D1); experiment: rDPY-31 absorbance assay (astacin assay, Suc-Ala-Ala-Ala-pNA substrate); format: biochemical; details: ±standard error; 3 h pre-incubation, 37 °C, pH 8.0; read-out: pIC50 rDPY-31 B. malayi (converted)
T2 construct: made in house; host or cells: E. coli (inferred from the codon optimisation and the pET28a(+) vector)
T2 sequence (A8Q2D1 211-410): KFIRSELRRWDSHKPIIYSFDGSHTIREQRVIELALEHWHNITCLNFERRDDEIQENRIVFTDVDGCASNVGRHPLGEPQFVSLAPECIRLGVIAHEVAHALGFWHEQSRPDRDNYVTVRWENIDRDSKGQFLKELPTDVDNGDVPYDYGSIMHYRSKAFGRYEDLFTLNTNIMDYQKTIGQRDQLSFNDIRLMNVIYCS
Excerpt: as §1, §2, §3

[3] = test system: free-living wild-type C. elegans N2; experiment: Phenotypic screening against C. elegans N2 larvae; format: in vivo, Caenorhabditis elegans; details: for phenotype induced: C. elegans N2, 96 well plate, 3 days, 50 μM to 2 mM
Experimental: (§4) These compounds were tested against three strains: free-living wild-type C. elegans N2, the T. circumcincta dpy-31 transgenically-rescued C. elegans dpy-31 mutant TP224, and parasitic T. circumcincta (Fig. 4). Phenotypes were evaluated in 96 well plate format over the course of 3 days using concentrations ranging from 50 μM to 2 mM. […] The similarity of these effects between wild-type C. elegans, the mutant strain, and T. circumcincta reinforces the conserved nature of this metalloprotease.
Compounds 8 and 9 were screened against C. elegans N2 L4s using 96-well plates. A single L4 was placed into each well in a total volume of 100 µL, made up of compound, M9 buffer and 5 µl 10x concentrated food (E. coli strain OP50), and incubated at 20 °C for 3 days, with the effects on the phenotypes recorded daily. The compounds were screened in duplicate at concentrations ranging from 50 µM to 2 mM. Actinonin (100 µM) was used as a positive control.^18 Representative offspring were transferred onto 2% agarose/0.01% azide pads on slides and viewed with a Zeiss Axioskop2 microscope. Images were taken using an AxioCam camera and Axiovision software.

[4] = test system: T. circumcincta dpy-31 transgenically-rescued C. elegans dpy-31 mutant TP224; experiment: Phenotypic screening against transgenic rescue strain TP224; format: in vivo, Caenorhabditis elegans; details: for phenotype induced: TP224, 96 well plate, 3 days, 50 μM to 2 mM
Experimental: as §4
Compounds 8 and 9 were screened against C. elegans N2 or TP224 L4s at 100, 250 and 1000 µM, using 96-well plates. A single L4 was placed into each of the wells in a total volume of 100 µl, made up of compound, M9 buffer and 5 µl 10x concentrated OP50. The compound concentrations were tested in duplicate for each compound. The plates were sealed with gas-permeable covers and incubated at 20 °C for 3 days, with the effects on the phenotypes recorded daily. Representative worm images were taken as described in section 5.1.

[5] = test system: parasitic T. circumcincta; experiment: Phenotypic screening against T. circumcincta L1s and L3s; format: in vivo, Teladorsagia circumcincta; details: for phenotype induced: T. circumcincta, 96 well plate, 50 μM to 2 mM
Experimental: as §4
T. circumcincta L1s or exsheathed L3s were incubated with compounds 8 and 9 at 100, 500 and 1000 µM. 10-20 L1s were incubated per well of a 96-well plate, each well containing compound, 5 µl 10x concentrated OP50 and EBSS (Earle’s Balanced Salt Solution; Life Technologies) to 100 µl, and 10-20 L3s were incubated per well of a 96-well plate, each well containing compound and EBSS to 100 µl. Each compound was tested in duplicate for all concentrations. The plates were sealed with gas-permeable covers and incubated at 26 °C (L1s) or 40 °C (L3s) at 100 rpm for 7-8 days and any observations on development were recorded. Representative worm images were taken as described in section 5.1.

| Structure (SMILES) | phenotype induced [3] | phenotype induced [4] | phenotype induced [5] | also measured |
| --- | --- | --- | --- | --- |
| COC(=O)C1CCCN1C(=O)C(C)CP(=O)(O)C(Cc1ccccc1)NC(=O)C(CCCCN)NC(=O)C1CCCN1C(=O)OCc1ccccc1 (stereo not drawn) [Compound 1] | – | – | – | IC50 [1]: > 500 µM; inhibition of crayfish astacin (crayfish astacin): mid-μM inhibitor |
| CNC(=O)[C@@H](NC(=O)[C@H](CC(C)C)[C@H](O)C(=O)NO)C(C)(C)C [Compound 3, marimastat] | – | – | – | IC50 [2]: 200 µM |
| C[C@H](NC(=O)[C@@H]1CCCN1C(=O)OC(C)(C)C)C(=O)N[C@@H](Cc1ccccc1)C(=O)NO [Compound 8] (HELM PEPTIDE1{[CC(C)(C)OC(=O)[*:2]].P.A.F.[ON[*:1]]}$$$$V2.0) | induce the Dpy phenotype | induce the Dpy phenotype | induce the Dpy phenotype | phenotype observed (Figure 4b) ([3]; L1 C. elegans (N2), 50 μM): Dpy phenotype; phenotype observed (Figure 4d) ([4]; L1 TP224, 100 μM): Dpy L1 phenotype |
| C[C@H](NC(=O)[C@@H]1CCCN1C(=O)OCC1c2ccccc2-c2ccccc21)C(=O)N[C@@H](Cc1ccccc1)C(=O)NO [Compound 9] (HELM PEPTIDE1{[O=C(OCC1c2ccccc2-c2ccccc21)[*:2]].P.A.F.[ON[*:1]]}$$$$V2.0) | induce the Dpy phenotype | induce the Dpy phenotype | induce the Dpy phenotype | phenotype observed (Figure 4f) ([5]; T. circumcincta L3, 500 μM): Dpy phenotype |
